These results are taken from US20050220836A1, “Drug delivery device” (priority 2004, published 2005).

Data set [1] relates to human smooth muscle cells. The data set is described as follows: Cladribine example, PDGF-stimulated cell proliferation, smooth muscle cells. It is filed as cell-based. The note with it: for % of PDGF-stimulated increase in cell count: SMC, day six, mean of triplicate. How it is done: (§1) To assess the ability of cladribine to prevent cell proliferation, human smooth muscle or endothelial cells (Clonetics, Walkersville, Md.) were seeded at a density of 2000 cells/cm^2 (approximately 3600 cells/well) into each well of 12-well plates and cultured with 1.5 ml of growth medium containing five percent fetal calf serum (FCS). After twenty-four hours, the growth medium was changed and fresh medium containing 10 ng/ml platelet-derived growth factor AB (PDGF AB; LIFE Technologies), as well as various concentrations of cladribine (0.001-10,000 nM) were added with triplicate wells. Medium was replaced with fresh cladribine-containing medium after three days. On day six, cells were detached by trypsinization to yield a cell suspension, lightly centrifuged to pellet and then counted manually using a Neubauer hemocytometer system. Cell viability was assessed by trypan blue exclusion.

Another data set concerns human endothelial cells. The data set is described as follows: Cladribine example, PDGF-stimulated cell proliferation, endothelial cells. It counts as cell-based. To be noted: for % of PDGF-stimulated increase in cell count: EC, day six, mean of triplicate. The procedure: as §1
Data set [2] relates to human coronary artery smooth muscle cells. The data set is described as follows: anti-proliferative activity in non-synchronized cultured cells stimulated with two percent fetal bovine serum. It is filed as cell-based. The source says: The multiple curves represent various concentrations of mycophenolic acid ranging from zero to one thousand nanomolar concentrations.
FIG. 58 illustrates, in graphical format, the anti-proliferative activity of cladribine in non-synchronized cultured human coronary artery smooth muscle cells stimulated with two percent fetal bovine serum.
The multiple curves represent various concentrations of cladribine ranging from zero to nine hundred nanomolar concentrations.

A short description of data set [3]: in vivo release kinetics of cladribine from polymeric stent coatings. Further details: species or system Yorkshire pig. The note with it: Bx Velocity stents.
Text: FIG. 61 is a graphical representation of the in vivo release kinetics of cladribine from a polymeric coating on BxVelocity® stents, available from Cordis Corporation, implanted in a Yorkshire pig. The basecoat comprises an 85/15 ratio of PVDF and HFP and cladribine for a total combined weight of one thousand eight hundred micrograms (cladribine comprising thirty percent of the total weight). […]
(§2) The basecoat is applied to Bx Velocity® stents and implanted into Yorkshire pigs.
as §2

Data set [4] relates to human coronary artery smooth muscle cells. The data set is described as follows: anti-proliferative activity in synchronized cultured cells stimulated with two percent fetal bovine serum. It counts as cell-based. The source says: (§3) The multiple curves represent various concentrations of topotecan ranging from zero to three hundred nanomolar concentrations.
(§4) The multiple curves represent various concentrations of etoposide ranging from zero to eight hundred nanomolar concentrations.
The multiple curves represent various concentrations of Panzem® ranging from zero to 100 micromolar concentrations.

In the next data set the test system is cell viability. The data set is described as follows: cell viability assay. It counts as cell-based.
Text: as §3, §4

Data set [5] can be described thus: in vivo release kinetics from rapamycin, mycophenolic acid and polymer coating, porcine pharmacokinetics studies. The note with it: 180 micrograms each drug, with or without BMA topcoat.
Data set [6] has as its system human coronary artery smooth muscle cell proliferation. The data set is described as follows: in vitro cell culture study, coronary artery smooth muscle cell proliferation. It counts as cell-based. An excerpt: FIG. 51 is a graph of the inhibition of coronary artery smooth muscle cells by trichostatin A in a cell culture study.
The subject of the next data set is tumor cell lines. The note with it: tumor cell lines (Woo et al., 2002); cited from earlier work.

What is called IC50 is the midpoint of a concentration-inhibition curve.

Regarding `Nc1nc(Cl)nc2c1ncn2[C@H]1C[C@H](O)[C@@H](CO)O1` [Cladribine, 2-chlorodeoxyadenosine], the IC50 in data set [1] (Homo sapiens, PDGF AB stimulated, reduction to 50 percent of vehicle-treated cell count, read-out: IC50 for inhibition of smooth muscle cell growth) was 23 nM; with human endothelial cells (Homo sapiens, Endothelial cell, PDGF AB stimulated, reduction to 50 percent of vehicle-treated cell count, read-out: IC50 for inhibition of endothelial cell growth), 40 nM; in data set [2] (non-synchronized human coronary artery smooth muscle cells, two percent fetal bovine serum) it was ~241 nM. For the same molecule, the “% of PDGF-stimulated increase in cell count” value (shortened to “% of PDGF-stimulated increase”) in [1] (cladribine 0.01 nM) was 104%; in data set [1] (cladribine 0.1 nM), 86%; in data set [1] (cladribine 1 nM), 85%; in [1] (cladribine 10 nM), 54%; in [1] (cladribine 100 nM) it was 58%; in data set [1] (cladribine 1000 nM), 12%. In addition, the “% of PDGF-stimulated increase” value in data set [1] (cladribine 10,000 nM) is −4%; in the data set on human endothelial cells (cladribine 0.001 nM), 100%; with human endothelial cells (cladribine 0.01 nM) it was 90%; with human endothelial cells (cladribine 0.1 nM), 79%; with human endothelial cells (cladribine 1 nM), 75%; in the data set with human endothelial cells (cladribine 10 nM), 59%. Further, the “% of PDGF-stimulated increase” value came out at 57% in the data set with human endothelial cells (cladribine 100 nM), 35% with human endothelial cells (cladribine 1000 nM) and 10% with human endothelial cells (cladribine 10,000 nM). The “potency on smooth muscle cells relative to endothelial cells” value in data set [1] (from the IC50 values) was “approximately twice as potent”. For the same molecule, the “effect of addition on anti-proliferative activity of rapamycin” value (shortened to “effect of addition”) in [2] (cladribine zero to nine hundred nanomolar added to rapamycin, non-synchronized cells) is reported as “increases the percent inhibition of rapamycin alone”. Also, the “inhibition of human coronary artery smooth muscle cell proliferation” value in data set [2] (non-synchronized cells, two percent fetal bovine serum) is on record as “completely inhibits”. In [3] (Yorkshire pig, 1800 microgram basecoat with thirty percent cladribine, 300 microgram topcoat), the “elution from PVDF/HFP (85/15) coating” value is on record as “levels off significantly”. For the same molecule, the “elution from EVA/BMA basecoat compared with rapamycin” value in data set [3] (Yorkshire pigs, 200 microgram BMA topcoat) is “elutes more rapidly than rapamycin”.
For `COc1cc([C@@H]2c3cc4c(cc3[C@@H](O[C@@H]3O[C@@H]5CO[C@@H](C)O[C@H]5[C@H](O)[C@H]3O)[C@H]3COC(=O)[C@H]23)OCO4)cc(OC)c1O` [Etoposide, etoposide], the “effect of addition” value in data set [4] (etoposide zero to eight hundred nanomolar added to rapamycin) is listed as “increases the percent inhibition of rapamycin alone”. The cytotoxicity entry in the data set with cell viability (at concentrations up to ten micromolar) was “non-cytotoxic”.
Consider `COc1cc2c(cc1O)CC[C@@H]1[C@@H]2CC[C@]2(C)[C@@H](O)CC[C@@H]12` [Panzem®, 2-methoxyestradiol], for which the “effect of addition” value in [4] (Panzem zero to 100 micromolar added to rapamycin) is recorded as “increases the percent of inhibition of rapamycin alone”. In addition, in [4] (two percent fetal bovine serum), the anti-proliferative activity alone result was “extremely effective inhibitor”.
For `CC[C@@]1(O)C(=O)OCc2c1cc1n(c2=O)Cc2cc3c(CN(C)C)c(O)ccc3nc2-1` [Topotecan, topotecan], in [4] (topotecan zero to three hundred nanomolar added to rapamycin), the “effect of addition” value is “increases the percent inhibition of rapamycin alone”. Further, the cytotoxicity result with cell viability (at concentrations up to one micromolar) is “non-cytotoxic”.
Turning to `COc1c(C)c2c(c(O)c1C/C=C(\C)CCC(=O)O)C(=O)OC2` [mycophenolic acid], in [2] (mycophenolic acid zero to one thousand nanomolar added to rapamycin, non-synchronized cells), the “effect of addition” value is “potentiates the anti-proliferative activity of rapamycin”. Moreover, the “release from EVA/BMA basecoat compared with rapamycin” value in data set [5] is on record as “elutes more completely over a shorter duration than the rapamycin”.
As to `CC(/C=C/C(=O)NO)=C\[C@@H](C)C(=O)c1ccc(N(C)C)cc1` [trichostatin A], in data set [6] (human coronary artery smooth muscle cells, cell culture, read-out: anti-proliferative IC50), the IC50 is ~6 nM. Besides, in data set [6] (in vitro cell culture), the “inhibition of human coronary artery smooth muscle cell proliferation” value is given as “completely inhibit”. Also, the “anti-proliferative IC50” value in the data set on tumor cell lines is “low nM range”.
